The values that follow come from patent publication US8513428B2, “Process for preparing atazanavir bisulfate and novel forms” (Bristol-Meyers Squibb Company, priority 2009, dated 2013).

The nature of this data set: moisture-sorption isotherms. The following applies: in the range from 25 to 75% RH at 25° C. It is filed as physicochemical.

Where a name gives a salt, the structure may show the parent alone.

Consider `COC(=O)N[C@H](C(=O)N[C@@H](Cc1ccccc1)[C@@H](O)CN(Cc1ccc(-c2ccccn2)cc1)NC(=O)[C@@H](NC(=O)OC)C(C)(C)C)C(C)(C)C` [Form A, 1-[4-(Pyridin-2-yl)phenyl]-5(S)-2,5-bis{[N-(methoxycarbonyl)-L-tert-leucinyl]amino}-4-(S)-hydroxy-6-phenyl-2-azahexane, Bisulfate salt (Form A)], for which the “moisture-sorption isotherms weight gain” value is “about 0.1%”.
